Experimental data as given in patent publication US9491962B2, “Use of chicoric acid and derivatives for regulating skin pigmentation” (Nestec S.A., priority 2010, dated 2016).

Tests used:
HDF = assay: Highest non cytotoxic concentration on HDF; type: cell-based; conditions: mM
Text: (§1) We have tested two chicory extracts MS-55 (concentré MS-55 LEROUX) and MS-70 (pâte MS-70 LEROUX) and Chicoric acid.

HPEK = assay: Highest non cytotoxic concentration on HPEK; type: cell-based, human; conditions: mM
Description: as §1
The potential beneficial effect of the Extracts of Example 1 towards skin barrier function and skin hydration was evaluated by using 2D culture of human primary epidermal keratinocytes and we assessed the synthesis of filaggrin

B16 murine melanocytes = assay: Production of melanin by B16 murine melanocyte cell line; type: cell-based; conditions: for melanin production (result in words): B16 melanocytes, 72 hours, Kojic acid at 400 μg/mL
Description: In order to evaluate the potential beneficial effect of ingredients towards skin de- or pro-pigmentation we used 2D culture of murine melanocytes (B16) and we performed 2 tests: 1-assessment of melanin production and 2-assessment of tyrosinase production. B16 cells were cultured in DMEM 1 g/L glucose without phenol red supplemented with 10% foetal calf serum, in a humidified chamber at 37° C. and containing 5% CO2. Cells were incubated with the selected ingredients or the test references (Kojic acid at 400 μg/mL) for 72 hours, in the presence or absence of NDP-MSH an analog of MSH. The total quantity of melanin (extracellular and intracellular) was evaluated by measurement of the optical density at 405 nm of each sample against melanin standards in presence or in absence of NDP-MSH.

filaggrin = assay: Synthesis of filaggrin by human epidermal keratinocytes (immunolabeling); type: cell-based; conditions: human primary epidermal keratinocytes, 144 hours
Description: The potential beneficial effect of the Extracts of Example 1 towards skin barrier function and skin hydration was evaluated by using 2D culture of human primary epidermal keratinocytes and we assessed the synthesis of filaggrin Human epidermal keratinocytes were cultured in control keratinocytes-SFM medium, in a humidified chamber at 37° C. and containing 5% CO2. Cells were incubated with the selected ingredients or the test references (CaCl2 at 1.5 mM) for 144 hours. The production of filaggrin by was evaluated by immunolabeling.

Structure (SMILES) | Highest non cytotoxic conc. on HDF (HDF) [mM] | Highest non cytotoxic conc. on HPEK (HPEK) [mM] | decrease of melanin production (B16 murine melanocytes; B16 melanocytes treated for 72 hours, percentage relative to the control) [%] | melanin production (result in words) (B16 murine melanocytes) | filaggrin synthesis (result in words) (filaggrin)
O=C(/C=C/c1ccc(O)c(O)c1)O[C@@H](C(=O)O)[C@@H](OC(=O)/C=C/c1ccc(O)c(O)c1)C(=O)O [Chicoric acid] | 0.2 | 0.2 | 90 | decrease in vitro the synthesis of melanin | increase of filaggrin
O=c1cc(CO)occ1O [Kojic acid, reference compound] | – | – | – | decrease in melanin production | –
